Earlier results, collected in patent US20090175967A1, “METHODS FOR TREATMENT OF INTESTINAL CARCINOGENESIS WITH RICE BRAN” (priority 2008, published 2009).

Test system: Apc^Min mice

COc1cc(/C=C/C(=O)CC(=O)/C=C/c2ccc(O)c(OC)c2)ccc1O [curcumin]
adenoma development: compromised adenoma development
